Experimental data taken from patent publication US20110104301A1, “METHODS OF REDUCING PAIN AND INFLAMMATION” (Georgetown University, A Congressionally Chartered …, priority 2008, published 2011).

Columns and labels:
[1] = system: AITC-sensitive DRG neurons; assay: Voltage- and current-clamp of DRG sensory neurons; assay type: cell-based, mouse; details: 10 of 11 cells
Description: Electrophysiology. HEK 293F cells were transfected with rat TRPV1, TRPA1, and TRPM8 (gift of David Julius, University of California, San Francisco). Dorsal root ganglia were cultured from adult mice (C57B16/J wild type and TRPV1-null, and mixed B6/129 background TRPA1-null) in Neurobasal +2% B-27 medium (Invitrogen), 0.1% L-glutamine and 1% penicillin/streptomycin. Whole-cell and single-channel patch-clamp recordings were performed by using an EPC8 amplifier (HEKA Electronics). For whole-cell and excised patch recordings the bath solution contained 140 mMNaCl, 4 mMKCl, 1 mMMgCl2, 1.2 mMCaCl2, 10 mMHepes, 10 mM glucose, pH 7.3. For cell-attached experiments, NaCl was replaced with KCl in the bath solution. The pipette solution contained 140 mM NaCl or KCl, 10 mM Hepes, 5 mM EGTA, pH 7.3. For neuronal recording NaCl was replaced with K-gluconate (plus 1 mMATP, 0.2 mM GTP). Solutions were applied via a gravity-fed system. Separate outlets were used to apply capsaicin and AITC solutions to avoid contamination. Voltage-dependent properties were measured as described in Matt and Ahern, J. Physiol. 585:469-482 (2007). Current-voltage measurements comprised a 200-ms ramp from −150 mV to +200 mV. The baseline currents under control conditions were subtracted. For cell-attached experiments, peak amplitudes were measured from all-points histograms, and open probability was measured as NPo>750 ms. Defolliculated Xenopus laevis oocytes were injected with ≈10 ng of hTRPA1 (gift of Ardem Patapoutian, The Scripps Research Institute, La Jolla, Calif.). Oocytes were placed in a Perspex chamber and continuously superfused (5 ml min^−1) with Ca^2+-free solution containing 100 mM NaCl, 2.5 mM KCl, 5 mM Hepes, 1 mM MgC12 and titrated to pH 7.3 with ˜5 mM NaOH.

Drosophila TRPA1 = target: T1, Drosophila TRPA1 (Drosophila melanogaster, UniProt Q7Z020); assay: Current-voltage recordings in dTRPA1-expressing HEK293 cells; assay type: cell-based; details: desflurane at concentrations up to 3 mM
T1 construct: expressed in transfected cells; host or cells: HEK293
T1 sequence (Q7Z020 1-1197): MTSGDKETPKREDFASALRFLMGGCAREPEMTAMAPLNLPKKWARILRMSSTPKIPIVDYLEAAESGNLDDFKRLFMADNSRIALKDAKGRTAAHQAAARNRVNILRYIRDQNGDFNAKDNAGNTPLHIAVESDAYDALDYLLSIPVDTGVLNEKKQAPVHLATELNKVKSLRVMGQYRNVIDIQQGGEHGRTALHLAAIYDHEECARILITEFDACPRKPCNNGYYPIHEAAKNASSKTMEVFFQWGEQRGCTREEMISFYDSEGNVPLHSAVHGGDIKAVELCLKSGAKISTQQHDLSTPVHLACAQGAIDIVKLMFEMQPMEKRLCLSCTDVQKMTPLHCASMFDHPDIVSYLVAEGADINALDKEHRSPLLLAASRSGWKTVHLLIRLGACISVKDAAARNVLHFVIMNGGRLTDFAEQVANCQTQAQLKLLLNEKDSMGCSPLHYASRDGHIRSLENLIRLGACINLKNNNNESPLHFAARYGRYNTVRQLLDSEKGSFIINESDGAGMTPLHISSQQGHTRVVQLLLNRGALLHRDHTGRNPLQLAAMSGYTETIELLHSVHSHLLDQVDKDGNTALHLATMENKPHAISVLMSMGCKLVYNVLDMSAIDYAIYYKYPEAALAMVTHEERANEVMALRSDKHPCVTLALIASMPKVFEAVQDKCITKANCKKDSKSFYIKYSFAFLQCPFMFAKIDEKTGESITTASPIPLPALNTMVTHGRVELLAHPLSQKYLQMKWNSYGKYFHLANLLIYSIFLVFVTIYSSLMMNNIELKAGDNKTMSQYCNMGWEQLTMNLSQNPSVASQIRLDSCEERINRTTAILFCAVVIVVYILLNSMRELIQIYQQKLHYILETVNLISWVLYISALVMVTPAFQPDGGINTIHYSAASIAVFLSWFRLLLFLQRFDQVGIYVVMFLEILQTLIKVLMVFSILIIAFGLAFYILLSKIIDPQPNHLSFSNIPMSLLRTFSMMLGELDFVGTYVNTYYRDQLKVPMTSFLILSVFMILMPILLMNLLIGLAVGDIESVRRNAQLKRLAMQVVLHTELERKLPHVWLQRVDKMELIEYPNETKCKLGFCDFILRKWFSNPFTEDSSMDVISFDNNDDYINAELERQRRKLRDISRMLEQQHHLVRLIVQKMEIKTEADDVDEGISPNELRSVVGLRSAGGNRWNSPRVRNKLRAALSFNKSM
Description: (§1) A genetic approach was used to identify critical sites in TRPA1 and TRPV1 required for activation by general anesthetics. Drosophila TRPA1 is insensitive to desflurane (at concentrations up to 3 mM). […] Note that dTRPA1 is insensitive to AITC. Next, several chimeric TRP proteins containing dTRPA1 (unresponsive to desflurane) and mTRPA1 were tested. For the dTRPA1-mN chimera, the mouse 720 amino acid N-terminus was exchanged for the drosophila N-terminus. The N-terminal domain contains essential binding sites for AITC, and therefore studying this chimera tests an important role for the N-terminus in anesthetic-sensing. […] The mTRPA1-dTM5 construct was then studied, which is the mouse protein containing the fifth transmembrane domain of the drosophila protein.

dTRPA1-mN chimera = target: T2, dTRPA1-mN chimera (UniProt Q7Z020+Q8BLA8); assay: Current-voltage recordings of chimera dTRPA1-mN; assay type: cell-based; details: mouse N-terminus substituted
T2 construct: mouse TRPA1 N-terminus (720 amino acids); expressed in transfected cells
T2 sequence (Q8BLA8+Q7Z020 fused, change not shown): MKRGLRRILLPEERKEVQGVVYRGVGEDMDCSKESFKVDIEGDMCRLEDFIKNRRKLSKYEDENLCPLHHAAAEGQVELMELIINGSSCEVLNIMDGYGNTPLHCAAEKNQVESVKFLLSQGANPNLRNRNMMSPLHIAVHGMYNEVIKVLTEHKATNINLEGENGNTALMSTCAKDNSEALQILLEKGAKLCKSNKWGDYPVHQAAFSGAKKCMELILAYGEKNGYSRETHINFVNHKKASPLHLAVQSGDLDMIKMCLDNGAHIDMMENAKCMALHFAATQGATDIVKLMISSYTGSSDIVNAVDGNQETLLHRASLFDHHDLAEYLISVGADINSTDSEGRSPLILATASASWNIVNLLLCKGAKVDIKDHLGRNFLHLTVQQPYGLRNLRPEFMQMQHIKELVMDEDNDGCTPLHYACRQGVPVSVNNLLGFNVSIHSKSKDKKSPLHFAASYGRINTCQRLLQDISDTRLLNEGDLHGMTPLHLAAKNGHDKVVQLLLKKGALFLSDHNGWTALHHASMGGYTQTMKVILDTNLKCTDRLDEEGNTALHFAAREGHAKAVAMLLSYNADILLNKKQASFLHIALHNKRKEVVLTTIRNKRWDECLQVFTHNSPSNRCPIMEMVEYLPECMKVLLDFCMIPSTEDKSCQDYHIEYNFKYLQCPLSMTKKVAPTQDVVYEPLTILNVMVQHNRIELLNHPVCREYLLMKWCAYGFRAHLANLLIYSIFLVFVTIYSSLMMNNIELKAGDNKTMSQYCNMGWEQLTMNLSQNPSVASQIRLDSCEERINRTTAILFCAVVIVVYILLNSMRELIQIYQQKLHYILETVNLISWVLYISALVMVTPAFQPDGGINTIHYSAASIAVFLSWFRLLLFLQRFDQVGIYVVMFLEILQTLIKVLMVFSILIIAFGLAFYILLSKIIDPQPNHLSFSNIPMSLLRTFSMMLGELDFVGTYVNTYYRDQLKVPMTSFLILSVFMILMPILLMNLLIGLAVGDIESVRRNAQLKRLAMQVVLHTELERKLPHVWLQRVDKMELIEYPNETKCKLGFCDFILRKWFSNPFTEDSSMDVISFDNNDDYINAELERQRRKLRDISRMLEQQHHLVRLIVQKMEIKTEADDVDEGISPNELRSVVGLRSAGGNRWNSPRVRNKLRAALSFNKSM
Description: as §1

TRPV1 = TRPV1 (Rattus norvegicus, UniProt O35433); assay: Voltage-clamp of TRPV1-expressing Xenopus oocytes (capsaicin, protons, heat); assay type: cell-based; details: PDBu 200 nM, 3 minutes
Sequence of TRPV1 (O35433 whole entry, the tested form may be a part): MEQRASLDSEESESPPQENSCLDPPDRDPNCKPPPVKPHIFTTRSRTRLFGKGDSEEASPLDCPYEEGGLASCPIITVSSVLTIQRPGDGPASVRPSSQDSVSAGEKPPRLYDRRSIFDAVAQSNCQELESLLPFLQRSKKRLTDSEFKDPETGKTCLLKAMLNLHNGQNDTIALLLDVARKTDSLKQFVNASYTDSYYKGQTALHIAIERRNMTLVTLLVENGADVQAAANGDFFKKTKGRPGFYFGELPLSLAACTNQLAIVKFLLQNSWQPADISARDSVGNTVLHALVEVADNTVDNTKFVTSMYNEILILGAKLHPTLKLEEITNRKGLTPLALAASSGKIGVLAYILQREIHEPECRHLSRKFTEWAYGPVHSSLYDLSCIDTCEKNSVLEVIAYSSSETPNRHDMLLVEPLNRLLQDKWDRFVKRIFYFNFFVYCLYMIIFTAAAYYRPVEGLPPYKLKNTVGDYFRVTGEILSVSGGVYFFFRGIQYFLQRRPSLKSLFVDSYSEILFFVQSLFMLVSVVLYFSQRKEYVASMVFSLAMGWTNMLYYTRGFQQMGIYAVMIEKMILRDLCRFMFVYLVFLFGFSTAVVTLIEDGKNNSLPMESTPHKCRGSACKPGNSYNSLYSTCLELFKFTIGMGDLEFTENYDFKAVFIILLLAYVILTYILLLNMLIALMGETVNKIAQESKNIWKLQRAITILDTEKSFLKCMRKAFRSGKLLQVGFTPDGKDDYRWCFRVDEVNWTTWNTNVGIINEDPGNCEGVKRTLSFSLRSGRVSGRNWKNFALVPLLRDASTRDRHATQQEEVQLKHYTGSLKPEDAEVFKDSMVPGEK
Description: Oocyte electrophysiology. […] Oocytes were placed in a Perspex chamber and continuously superfused (5 ml min-1) with Ca2+-free solution containing (in mM): 100 NaCl, 2.5 KCl, 5 HEPES, 1 MgCl2 and titrated to pH 7.3 with ˜5 mM NaOH. For solutions <pH 6.0, HEPES was replaced with either 5 mM MES or 5 mM sodium citrate. Oocytes were routinely voltage-clamped at −60 mV at 22-23° C. For heat activation, bath temperature was raised from ˜22-50° C. over ˜100 s using an in-line solution heater (Warner Instruments). The temperature was continuously monitored with a probe placed within 2 mm of the oocyte. The temperature-activation threshold was defined as a 20% increase in current above baseline.
Volatile general anesthetics. Saturated stock solutions of volatile general anesthetics (VGAs) were prepared in gas-tight bottles by dissolving excess anesthetic agents in bath solutions and stirring vigorously overnight. From these stock solutions fresh dilutions were made up every 40-60 minutes. Concentrations of volatile anesthetics in the bath solutions were verified using a modified head-space gas chromatography method. The gas chromatograph (Carlo Erba, Milan, Italy) was equipped with a flame ionization detector (FID) and mass spectrometer. The carrier gas was hydrogen (60 kPa column head pressure) and the fused silica capillary column, coated with polysiloxane SE-30, was 25 m×0.25 mm. Injector temperature was 250° C., FID temperature was 300° C. and the oven was maintained at 90° C. Standards were prepared from a mixture of halothane, isoflurane, and sevoflurane dissolved in acetonitrile with enflurane as an internal standard.

mutant S502A/S800A TRPV1 = target: T3, mutant S502A/S800A TRPV1 (Rattus norvegicus, UniProt O35433, S502A/S800A); assay: Heat activation in oocytes expressing mutant S502A/S800A TRPV1; assay type: cell-based
T3 construct: expressed in transfected cells; host or cells: Xenopus laevis oocytes (cRNA injection)
T3 sequence (O35433 whole entry S502A/S800A): as the sequence (O35433 whole entry, the tested form may be a part) above, with S502A, S800A counted along it
Description: Oocyte electrophysiology. […] Oocytes were placed in a Perspex chamber and continuously superfused (5 ml min-1) with Ca2+-free solution containing (in mM): 100 NaCl, 2.5 KCl, 5 HEPES, 1 MgCl2 and titrated to pH 7.3 with 5 mM NaOH. For solutions <pH 6.0, HEPES was replaced with either 5 mM MES or 5 mM sodium citrate. Oocytes were routinely voltage-clamped at -60 mV at 22-23° C.

## C=CCN=C=S [AITC]
[1]
  Isoflurane-responsive neurons also sensitive to AITC: 91%
Drosophila TRPA1
  Sensitivity of Drosophila TRPA1: insensitive
dTRPA1-mN chimera
  Response of dTRPA1-mN chimera: conferred AITC-sensitivity

## CCCC(=O)O[C@@H]1[C@@H](C)[C@@]2(O)[C@@H](C=C(CO)C[C@]3(O)C(=O)C(C)=C[C@@H]23)[C@@H]2C(C)(C)[C@]12OC(=O)CCC [PDBu, phorbol 12, 13 dibutyrate]
TRPV1
  Temperature threshold of TRPV1 heat activation, PDBu alone: 39.3±2.3 °C
Mutant S502A/S800A TRPV1
  Effect of PDBu in oocytes expressing mutant TRPV1: did not produce a significant effect
